The values that follow come from US10464911B2, “1,3,4-oxadiazole sulfamide derivative compounds as histone deacetylase 6 inhibitor, and the pharmaceutical composition comprising the same” (Chong Kun Dang Pharmaceutical Corp., priority 2015, dated 2019).

Molecules are shown by their SMILES.

One experiment addresses human recombinant HDAC1 (Homo sapiens (Human), UniProt Q13547). As to the kind of experiment: HDAC1 enzyme activity inhibition assay (HDAC Fluorimetric Drug Discovery Kit). The class given is biochemical. The settings on record: human recombinant HDAC1, Fluor de Lys substrate 10 μM, 60 minutes. The protocol:
In order to examine the HDAC6 selectivity of the compounds of formula I of the present invention by HDAC1 and HDAC6 enzymatic activity inhibition assays, an experiment was performed using a conventional substance as a control.
HDAC enzyme activity was measured using a HDAC Fluorimetric Drug Discovery Kit (BML-AK511, 516, Enzo Life Science). For the HDAC1 enzyme activity test, human recombinant HDAC1 (BML-SE456) was used as an enzyme source, and Fluor de Lys®-“SIRT1 (BNL-KI177) was used as a substrate. A 5-fold dilution of the compound was seeded into a 96-well plate, and then 0.3 μg of the enzyme and 10 μM of the substrate were added to each well of the plate and allowed to react at 30 for 60 minutes. Then, Fluor de Lys®-Developer II (BML-KI176) was added thereto and allowed to react for 30 minutes, after which the fluorescence value (Ex 360, Em 460) was measured using a multi-plate reader (Flexstation 3, Molecular Device). The HDAC6 enzyme was tested using human recombinant HDAC6 (382180) (Calbiochem) according to the same protocol as the HDAC1 enzyme activity test method. Based on the resulting values, each IC50 value was calculated using GraphPad Prism4.0 program.

Another experiment deals with human recombinant HDAC6 (Homo sapiens (Human), UniProt Q9UBN7). As to the kind of experiment: HDAC6 enzyme activity inhibition assay (HDAC Fluorimetric Drug Discovery Kit). In kind it is biochemical. The note with it: for HDAC6 selectivity (fold): HDAC6 versus HDAC1; for IC50: human recombinant HDAC6, same protocol as HDAC1 test. In outline: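 Recombinant human HDAC1 or HDAC6 (0.3 μg) reacted with 10 μM Fluor de Lys-SIRT1 substrate and 5-fold compound dilutions for 60 min at 30 °C, followed by 30 min developer. Fluorescence read at Ex 360/Em 460; IC50 calculated from the values.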
Chain of human recombinant HDAC6 (Q9UBN7 whole entry): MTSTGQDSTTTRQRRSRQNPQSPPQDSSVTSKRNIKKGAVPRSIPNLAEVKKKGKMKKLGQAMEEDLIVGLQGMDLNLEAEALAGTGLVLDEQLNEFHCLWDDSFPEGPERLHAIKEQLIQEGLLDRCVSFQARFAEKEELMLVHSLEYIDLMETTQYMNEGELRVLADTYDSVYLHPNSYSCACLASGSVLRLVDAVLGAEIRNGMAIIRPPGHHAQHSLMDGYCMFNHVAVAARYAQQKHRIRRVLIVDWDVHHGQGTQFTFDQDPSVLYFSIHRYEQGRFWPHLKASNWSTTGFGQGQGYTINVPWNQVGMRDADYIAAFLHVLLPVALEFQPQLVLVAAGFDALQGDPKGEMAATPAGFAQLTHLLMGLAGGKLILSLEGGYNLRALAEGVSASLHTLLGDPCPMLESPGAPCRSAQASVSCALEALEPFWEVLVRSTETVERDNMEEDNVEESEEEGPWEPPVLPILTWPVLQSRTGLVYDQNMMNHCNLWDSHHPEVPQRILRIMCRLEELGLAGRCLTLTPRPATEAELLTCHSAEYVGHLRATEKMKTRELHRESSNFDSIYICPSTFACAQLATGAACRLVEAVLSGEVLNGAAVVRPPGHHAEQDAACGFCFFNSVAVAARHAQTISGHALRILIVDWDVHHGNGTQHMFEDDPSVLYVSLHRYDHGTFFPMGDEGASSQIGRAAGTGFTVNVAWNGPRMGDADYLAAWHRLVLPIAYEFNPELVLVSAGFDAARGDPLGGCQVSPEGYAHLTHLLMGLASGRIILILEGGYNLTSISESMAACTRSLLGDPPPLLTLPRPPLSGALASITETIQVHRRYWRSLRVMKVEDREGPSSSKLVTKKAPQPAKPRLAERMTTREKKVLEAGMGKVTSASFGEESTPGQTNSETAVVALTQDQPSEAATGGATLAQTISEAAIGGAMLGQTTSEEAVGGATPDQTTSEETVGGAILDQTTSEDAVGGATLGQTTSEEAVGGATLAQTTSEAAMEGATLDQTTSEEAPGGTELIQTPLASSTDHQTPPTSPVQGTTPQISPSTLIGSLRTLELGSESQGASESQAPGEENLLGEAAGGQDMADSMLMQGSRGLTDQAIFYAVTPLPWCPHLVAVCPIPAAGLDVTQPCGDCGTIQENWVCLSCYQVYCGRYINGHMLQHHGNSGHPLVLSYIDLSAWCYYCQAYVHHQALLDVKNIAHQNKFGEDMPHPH

Chain of human recombinant HDAC1 (Q13547 whole entry): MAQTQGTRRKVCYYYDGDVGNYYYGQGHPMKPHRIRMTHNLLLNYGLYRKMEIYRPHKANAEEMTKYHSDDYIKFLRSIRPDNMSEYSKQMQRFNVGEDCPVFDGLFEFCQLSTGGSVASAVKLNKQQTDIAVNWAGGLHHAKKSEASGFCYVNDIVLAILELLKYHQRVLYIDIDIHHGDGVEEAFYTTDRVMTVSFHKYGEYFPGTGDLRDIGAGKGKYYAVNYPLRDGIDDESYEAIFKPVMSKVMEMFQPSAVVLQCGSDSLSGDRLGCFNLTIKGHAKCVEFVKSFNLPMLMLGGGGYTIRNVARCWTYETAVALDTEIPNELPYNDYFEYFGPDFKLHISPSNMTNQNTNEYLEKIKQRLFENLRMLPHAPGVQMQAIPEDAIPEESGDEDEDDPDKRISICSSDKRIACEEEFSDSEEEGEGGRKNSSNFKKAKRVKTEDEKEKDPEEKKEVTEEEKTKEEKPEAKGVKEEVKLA

Take `CCN1[C@H](C)CN(S(=O)(=O)N(Cc2ccc(-c3nnc(C(F)F)o3)cn2)c2ccccc2)C[C@@H]1C` [Compound 11661, (3S,5R)—N-((5-(5-(difluoromethyl)-1,3,4-oxadiazol-2-yl)pyridin-2-yl)methyl)-4-ethyl-3,5-dimethyl-N-phenylpiperazine-1-sulfonamide]: the half-inhibitory concentration (IC50) (as a rule, the concentration that gives 50% inhibition) on human recombinant HDAC1 came out at 116 µM. Besides, at human recombinant HDAC6, the “HDAC6 selectivity (fold)” value is on record as 1886 fold and the IC50 worked out at 0.061 µM.

Take `C[C@@H]1CN(S(=O)(=O)N(Cc2ccc(-c3nnc(C(F)F)o3)cc2)c2cccnc2)C[C@H](C)N1C` [Compound 11662, (3S,5R)—N-(4-(5-(difluoromethyl)-1,3,4-oxadiazol-2-yl)benzyl)-3,4,5-trimethyl-N-(pyridin-3-yl)piperazine-1-sulfonamide]: the half-inhibitory concentration (IC50) on human recombinant HDAC1 stood at 55.3 µM. Besides, on human recombinant HDAC6, the “HDAC6 selectivity (fold)” value is reported as 1182 fold and the IC50 came out at 0.047 µM.

As to `CN1CCN(CCN(C)S(=O)(=O)N(Cc2ccc(-c3nnc(C(F)F)o3)cc2)c2ccccc2)CC1` [Compound 11702, 2-((4-(((N-methyl-N-(2-(4-methylpiperazin-1-yl)ethyl)sulfamoyl)(phenyl)amino)methyl))phenyl)-5-(difluoromethyl)-1,3,4-oxadiazole], the IC50 on human recombinant HDAC1 is 50.2 µM. Also, on human recombinant HDAC6, the “HDAC6 selectivity (fold)” value is reported as 542 fold and the IC50 came to 0.093 µM.
